Source: PMC7161086 (Peptides, 2019)

Assays:
[1] = tested on: Staphylococcus aureus ATCC 43300 MRSA; test: MIC, additional antimicrobial activities; type: cell-based; conditions: for Minimal inhibitory concentration (MIC) Sa: Staphylococcus aureus ATCC 43300 MRSA
[2] = tested on: Escherichia coli ATCC 25922; test: MIC, additional antimicrobial activities; type: cell-based
[3] = tested on: Psedomonas aeruginosa ATCC 27853; test: MIC, additional antimicrobial activities; type: cell-based
[4] = tested on: Acinetobacter baumannii ATCC 19606; test: MIC, additional antimicrobial activities; type: cell-based
[5] = tested on: Candida albicans ATCC 90028; test: MIC, additional antimicrobial activities; type: cell-based
[6] = tested on: Cryptococcus neoformans var. grubii H99 ATCC 20882; test: MIC, additional antimicrobial activities; type: cell-based
[7] = tested on: HEK-293 human embryonic kidney cells (ATCC CRL-1573); test: Cytotoxicity, resazurin test; type: cell-based; conditions: performed by CO-ADD
[8] = tested on: Klebsiella pneumoniae ATCC 700603
[9] = tested on: Staphylococcus aureus JE2 MRSA; test: MIC assay, broth microdilution; type: cell-based
[10] = tested on: Escherichia coli K12; test: MIC assay, broth microdilution; type: cell-based; conditions: 37 °C, 24 h, MHB
[11] = tested on: human red blood cells; type: cell-based

Row | Substance | Minimal inhibitory concentration (MIC) Sa [1] | Minimal inhibitory concentration (MIC) Ec [2] | Minimal inhibitory concentration (MIC) Pa [3] | Minimal inhibitory concentration (MIC) Ab [4] | Minimal inhibitory concentration (MIC) Ca [5] | Minimal inhibitory concentration (MIC) Cn [6] | IC50 HEK-293 [7] | Minimal inhibitory concentration (MIC) Kp [8] | Minimal inhibitory concentration (MIC) Sa ([9]; Staphylococcus aureus JE2 MRSA, 37 °C, 24 h, MHB) | fold increase in activity (decrease of MIC) against S. aureus ([9]; relative to Cit 1.1) | Minimal inhibitory concentration (MIC) Ec [10] | fold increase in activity (decrease of MIC) against MRSA strains ([1]; relative to Cit 1.1, MRSA strains JE2 and ATCC 43300) | HC50 Human red blood cells [11]
1 | GLFDVI(Orn)(Orn)VASVIGGL [AMP-006] | 32 µg/mL | > 32 µg/mL | > 32 µg/mL | > 32 µg/mL | > 32 µg/mL | 32 µg/mL | > 32 µg/mL | > 32 µg/mL | – | – | – | – | –
2 | GLFDVIRRVASVIGGL [AMP-012] | 16 µg/mL | 32 µg/mL | > 32 µg/mL | 32 µg/mL | 16 µg/mL | 16 µg/mL | – | > 32 µg/mL | 16 µg/mL | 2 fold | 32 µg/mL | 2 fold | 18.2 µg/mL
